For data set [1], the target named is T1, Oxysterols receptor LXR-alpha (Homo sapiens) (UniProt Q13133).
T1 sequence (whole entry): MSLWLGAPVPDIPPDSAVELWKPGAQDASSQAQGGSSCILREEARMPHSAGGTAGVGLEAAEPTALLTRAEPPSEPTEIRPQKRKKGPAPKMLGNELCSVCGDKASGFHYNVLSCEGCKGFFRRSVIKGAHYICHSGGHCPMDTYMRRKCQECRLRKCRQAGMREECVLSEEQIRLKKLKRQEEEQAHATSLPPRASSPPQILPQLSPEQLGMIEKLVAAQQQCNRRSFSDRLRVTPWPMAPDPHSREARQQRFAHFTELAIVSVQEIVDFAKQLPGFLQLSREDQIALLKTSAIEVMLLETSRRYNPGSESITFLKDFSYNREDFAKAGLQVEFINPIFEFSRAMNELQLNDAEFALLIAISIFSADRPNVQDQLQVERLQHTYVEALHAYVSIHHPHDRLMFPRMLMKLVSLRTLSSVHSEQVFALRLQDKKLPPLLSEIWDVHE
Put plainly: Transactivation of human LXR-alpha transfected in HEK293 cells at 100 uM after 24 hrs by luciferase reporter gene assay. Format: cell-based. In general terms: Reporter assays use an easily measured gene product as a stand-in for the process of interest.

Data set [2] relates to HepG2. Kind of data set: Induction of lipid accumulation in human HepG2 cells assessed as cellular triglyceride concentration at 50 to 100 uM. It is filed as cell-based. As to conditions: hepg2, 100 µM.

The record followed here is ChEMBL document CHEMBL2203118, “Ethyl 2,4,6-trihydroxybenzoate is an agonistic ligand for liver X receptor that induces cholesterol efflux from macrophages without affecting lipid accumulation in HepG2 cells” (Bioorg Med Chem Lett, 2012).

SMILES strings stand for the structures.

On to `CCOC(=O)c1c(O)cc(O)cc1O`, for which the Activity in data set [1] is 64%; in data set [2], “Non-toxic”.
